Results from a compilation of properties of binary mixtures (doi:10.1021/acs.jced.9b00738).

Assay: xn = mol fraction of the nth substance listed
Details: 100 kPa

CCOC(=O)OCC + CCCC[N+]1(C)CCCC1.O=S(=O)([N-]S(=O)(=O)C(F)(F)F)C(F)(F)F
x2 = 0
Details | viscosity [mPa·s]
293.15 K | 0.8
298.15 K | 0.75
303.15 K | 0.7
308.15 K | 0.65
313.15 K | 0.61
318.15 K | 0.58

CCCC[N+]1(C)CCCC1.O=S(=O)([N-]S(=O)(=O)C(F)(F)F)C(F)(F)F + CCOC(=O)OCC
Details | electrical conductivity [S/m] | viscosity [mPa·s]
293.15 K, x1 = 0.1506 | 0.443 | 2.76
293.15 K, x1 = 0.25 | 0.584 | –
293.15 K, x1 = 0.2973 | 0.613 | 6.62
293.15 K, x1 = 0.349 | 0.608 | 8.69
293.15 K, x1 = 0.4 | 0.531 | 11.2
293.15 K, x1 = 0.6002 | 0.34 | 29.01
293.15 K, x1 = 0.6985 | 0.288 | 41
293.15 K, x1 = 0.8006 | 0.254 | 55.9
293.15 K, x1 = 1 | 0.216 | 98
298.15 K, x1 = 0.1001 | 0.372 | 1.65
298.15 K, x1 = 0.1506 | 0.494 | 2.49
298.15 K, x1 = 0.2 | 0.586 | 3.49
298.15 K, x1 = 0.25 | 0.646 | –
298.15 K, x1 = 0.2973 | 0.701 | 5.86
298.15 K, x1 = 0.349 | 0.693 | 7.74
298.15 K, x1 = 0.4 | 0.622 | 9.95
298.15 K, x1 = 0.4998 | 0.514 | 15.45
298.15 K, x1 = 0.6002 | 0.425 | 24.22
298.15 K, x1 = 0.6985 | 0.365 | 34.1
298.15 K, x1 = 0.8006 | 0.329 | 46
298.15 K, x1 = 0.8934 | 0.3 | 58.6
298.15 K, x1 = 1 | 0.275 | 76.6
303.15 K, x1 = 0.1001 | 0.401 | 1.5
303.15 K, x1 = 0.1506 | 0.543 | 2.26
303.15 K, x1 = 0.2973 | 0.785 | 5.21
303.15 K, x1 = 0.349 | 0.782 | 7
303.15 K, x1 = 0.4 | 0.714 | 8.78
303.15 K, x1 = 0.4998 | 0.601 | 13.25
303.15 K, x1 = 0.6002 | 0.509 | 20.02
303.15 K, x1 = 0.6985 | 0.438 | 28.53
303.15 K, x1 = 0.8006 | 0.395 | 38
303.15 K, x1 = 0.8934 | 0.371 | 46.9
303.15 K, x1 = 1 | 0.34 | 61.6
308.15 K, x1 = 0.1001 | 0.436 | 1.35
308.15 K, x1 = 0.1506 | 0.591 | 2.03
308.15 K, x1 = 0.2 | 0.703 | 2.85
308.15 K, x1 = 0.25 | 0.8 | –
308.15 K, x1 = 0.2973 | 0.876 | 4.79
308.15 K, x1 = 0.349 | 0.867 | 6.3
308.15 K, x1 = 0.4 | 0.803 | 7.89
308.15 K, x1 = 0.6002 | 0.612 | 17
308.15 K, x1 = 0.6985 | 0.534 | 23.82
308.15 K, x1 = 0.8006 | 0.485 | 32.02
308.15 K, x1 = 1 | 0.411 | 50.8
313.15 K, x1 = 0.1506 | 0.637 | 1.83
313.15 K, x1 = 0.2 | 0.766 | 2.56
313.15 K, x1 = 0.2973 | 0.968 | 4.33
313.15 K, x1 = 0.349 | 0.957 | 5.76
313.15 K, x1 = 0.4 | 0.908 | 7.11
313.15 K, x1 = 0.4998 | 0.804 | 10.46
313.15 K, x1 = 0.6002 | 0.73 | 14.69
313.15 K, x1 = 0.6985 | 0.649 | 19.99
313.15 K, x1 = 0.8006 | 0.588 | 26
313.15 K, x1 = 0.8934 | 0.535 | 31.7
313.15 K, x1 = 1 | 0.491 | 41.6
318.15 K, x1 = 0.1001 | 0.501 | 1.09
318.15 K, x1 = 0.1506 | 0.684 | 1.64
318.15 K, x1 = 0.2 | 0.83 | 2.28
318.15 K, x1 = 0.25 | 1 | –
318.15 K, x1 = 0.2973 | 1.05 | 3.9
318.15 K, x1 = 0.349 | 1.05 | 5.21
318.15 K, x1 = 0.4 | 1 | 6.45
318.15 K, x1 = 0.4998 | 0.903 | 9.01
318.15 K, x1 = 0.6002 | 0.831 | 13
318.15 K, x1 = 0.6985 | 0.746 | 17.01
318.15 K, x1 = 0.8006 | 0.673 | 22
318.15 K, x1 = 0.8934 | 0.62 | 26.75
318.15 K, x1 = 1 | 0.581 | 34.6
323.15 K, x1 = 0.1506 | 0.742 | 1.46
323.15 K, x1 = 0.2 | 0.901 | 2.05
323.15 K, x1 = 0.25 | 1.1 | –
323.15 K, x1 = 0.2973 | 1.14 | 3.52
323.15 K, x1 = 0.349 | 1.15 | 4.63
323.15 K, x1 = 0.4 | 1.1 | 5.79
323.15 K, x1 = 0.4998 | 1.02 | 8.05
323.15 K, x1 = 0.6002 | 0.935 | 11.01
323.15 K, x1 = 0.6985 | 0.865 | 14.4
323.15 K, x1 = 0.8934 | 0.745 | 22.8
323.15 K, x1 = 1 | 0.681 | 29.46
